Key:
[1] = target: T1, recombinant human CK2 (RRββ-holoenzyme) (Homo sapiens, UniProt P68400); test: CK2 Kinase Assay (radiometric, [γ-33P] ATP); type: biochemical; settings: final ATP concentration 15 μM, 10 min at 30° C., eight concentrations; read-out: protein kinase CK2 activity IC50
T1 construct: purchased Millipore
Experimental: CK2 Kinase Assay was conducted using the protocol as described in Pierre F. et al; J. Med. Chem. 2011, 54, 635-654. The tested compounds in aqueous solution were added at a volume of 10 μL to a reaction mixture comprising 10 μL of assay dilution buffer (ADB; 20 mM MOPS, pH 7.2, 25 mM β-glycerol phosphate, 5 mM EGTA, 1 mM sodium orthovanadate, and 1 mM dithiothreitol), 10 μL of substrate peptide (RRRDDDSDDD, dissolved in ADB at a concentration of 1 mM), 10 μL of recombinant human CK2 (RRββ-holoenzyme, 25 ng dissolved in ADB; Millipore). Reactions were initiated by the addition of 10 μL of ATP solution (90%75 mM MgCl2, 75 μM ATP (final ATP concentration: 15 μM) dissolved in ADB; 10% [γ-33P] ATP (stock 1 mCi/100 μL; 3000 Ci/mmol (Perkin-Elmer) and maintained for 10 min at 30° C. The reactions were quenched with 100 μL of 0.75% phosphoric acid and then transferred to and filtered through a phosphor cellulose filter plate (Millipore). After washing each well five times with 0.75% phosphoric acid, the plate was dried under vacuum for 5 min and, following the addition of 15 μL of scintillation fluid to each well, the residual radioactivity was measured using a Wallac […]. The IC50 values were derived from eight concentrations of test inhibitors.

H1299 (lung) = test: In vitro cytotoxic activity MTT assay, H1299; type: cell-based; settings: Homo sapiens, NCI-H1299; H1299 (lung) cells, exposed for 96 hours; read-out: Cytotoxicity activity IC50 (50% inhibition of cell proliferation)
Experimental: (§1) Compounds 1-16 were screened for their in vitro cytotoxic activity utilizing a 3-(4,5-dimethyl-thiazol-2-yl)-2,5-diphenyltetrazolium bromide (MTT) assay against selected cancer human cell lines consisting of PC3 (prostate), HCT116 (colon), A375 (melanoma), H1299 (lung), MIAPaCa-2 (pancreas), HL60 (leukemia), MCF7 (breast), MDA-MB-231 (breast) (T. Mosmann, J. Immunol. Meth., 1983, 65, 55-63). The cells were cultured at 37° C. in RMPI1640 medium supplemented with 10% fetal bovine serum, 50 IU/mL penicillin, and 50 μg/mL streptomycin in a 5% CO2 incubator. All cells were sub-cultured 3 times/week by trypsinisation. Viable cells were seeded and allowed to adhere for 12 hours before a test drug was added in 96-well plates at an initial density of 1.0×10^5 cells/mL. Tumor cell lines were separately exposed to various concentrations of the tested compounds followed by incubation at a temperature of 37° C. during 96 hours inside a medium of fresh RMPI 1640. Cells were subsequently incubated at 37° C. using MTT at 0.5 mg/mL during 4 hours. After removal of supernatant, formazan crystals were dissolved in isopropanol and the optical density was measured at 570 nm. CX-4945 was used as a positive control.

HL60 (leukemia) = test: In vitro cytotoxic activity MTT assay, HL60; type: cell-based; settings: Homo sapiens, HL-60; HL60 (leukemia) cells, exposed for 96 hours; read-out: Cytotoxicity activity IC50 (50% inhibition of cell proliferation)
Experimental: as §1

MCF7 (breast) = test: In vitro cytotoxic activity MTT assay, MCF7; type: cell-based; settings: Homo sapiens; MCF7 (breast) cells, exposed for 96 hours; read-out: Cytotoxicity activity IC50 (50% inhibition of cell proliferation)
Experimental: as §1

A375 (melanoma) = test: In vitro cytotoxic activity MTT assay, A375; type: cell-based; settings: Homo sapiens, A-375; A375 (melanoma) cells, exposed for 96 hours; read-out: Cytotoxicity activity IC50 (50% inhibition of cell proliferation)
Experimental: as §1

MDA-MB-231 (breast) = test: In vitro cytotoxic activity MTT assay, MDA-MB-231; type: cell-based; settings: Homo sapiens; MDA-MB-231 (breast) cells, exposed for 96 hours; read-out: Cytotoxicity activity IC50 (50% inhibition of cell proliferation)
Experimental: as §1

PC3 (prostate) = test: In vitro cytotoxic activity MTT assay, PC3; type: cell-based; settings: Homo sapiens, Prostate cell; PC3 (prostate) cells, exposed for 96 hours; read-out: Cytotoxicity activity IC50 (50% inhibition of cell proliferation)
Experimental: as §1

HCT116 (colon) = test: In vitro cytotoxic activity MTT assay, HCT116; type: cell-based; settings: Homo sapiens, HCT-116; HCT116 (colon) cells, exposed for 96 hours; read-out: Cytotoxicity activity IC50 (50% inhibition of cell proliferation)
Experimental: as §1

MIAPaCa-2 (pancreas) = test: In vitro cytotoxic activity MTT assay, MIAPaCa-2; type: cell-based; settings: Homo sapiens, MIA PaCa-2; MIAPaCa-2 (pancreas) cells, exposed for 96 hours; read-out: Cytotoxicity activity IC50 (50% inhibition of cell proliferation)
Experimental: as §1

T1 sequence (P68400 whole entry): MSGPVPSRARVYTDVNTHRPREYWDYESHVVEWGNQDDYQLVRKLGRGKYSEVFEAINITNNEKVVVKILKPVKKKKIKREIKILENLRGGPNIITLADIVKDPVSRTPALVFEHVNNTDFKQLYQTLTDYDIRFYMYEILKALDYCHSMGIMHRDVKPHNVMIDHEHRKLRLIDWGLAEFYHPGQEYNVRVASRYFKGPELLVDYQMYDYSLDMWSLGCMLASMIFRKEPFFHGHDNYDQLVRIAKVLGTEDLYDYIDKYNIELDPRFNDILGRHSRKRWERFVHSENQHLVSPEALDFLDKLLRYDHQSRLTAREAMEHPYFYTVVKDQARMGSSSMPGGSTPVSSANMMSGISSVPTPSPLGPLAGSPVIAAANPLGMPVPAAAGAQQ
T1 sequence (P67870 whole entry partner): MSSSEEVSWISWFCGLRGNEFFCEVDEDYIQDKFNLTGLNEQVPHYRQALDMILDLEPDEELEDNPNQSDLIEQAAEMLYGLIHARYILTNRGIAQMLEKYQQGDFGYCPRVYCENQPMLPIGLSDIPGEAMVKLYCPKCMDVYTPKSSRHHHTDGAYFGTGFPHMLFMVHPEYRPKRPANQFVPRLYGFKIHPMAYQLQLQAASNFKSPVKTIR

## O=C(O)c1ccn2c1c(Nc1cccc(Cl)c1)nc1ccncc12 [Compound 1, 6-((3-chlorophenyl)amino)pyrido[4,3-e]pyrrolo[1,2-a]pyrazine-7-carboxylic acid]
[1]
  IC50: 91 nM
H1299 (lung)
  IC50: 2100 nM
HL60 (leukemia)
  IC50: 3200 nM
MCF7 (breast)
  IC50: 5900 nM
A375 (melanoma)
  IC50: 4600 nM
MDA-MB-231 (breast)
  IC50: 5300 nM
PC3 (prostate)
  IC50: 2800 nM
HCT116 (colon)
  IC50: 1500 nM
MIAPaCa-2 (pancreas)
  IC50: 1700 nM
